Laboratory results as given in PMC7617869, “Molecular glues that inhibit deubiquitylase activity and inflammatory signaling” (Nature Structural & Molecular Biology, 2025).
Values joined by “and” are separate entries in the source; they are usually repeats but may differ in a detail not shown here. Identical values can stand only once. Blank lines part the entries; values can stand above or below the compound they belong to.

Assays:
[1] = system: AMSH* (a STAM2–AMSH fusion); assay: AMSH* IQF DUB activity assay; type: biochemical; details: for Normalised V0: Fig. 1e, AMSH*
Method: (§1) IQF assays were performed in DUB reaction buffer containing 50 mM HEPES–NaOH pH 7.0, 100 mM NaCl, 0.1 mg ml^−1 BSA, 1 mM DTT and 0.03% v/v Brij-35. […] The final concentration of BRISC WT, all BRISC mutants, HsBRISCΔLoop, MmBRISC and DrBRISCΔNΔC was 1 nM. Other enzymes were tested at the following concentrations: 5 nM ARISC (FL), 10 nM CfBRISCΔNΔC, 250 nM AMSH* (ref. [43]), 500 nM USP2 and 1 μM trypsin (Sigma, 9002-07-7). For Michaelis–Menten experiments, 1 nM BRISC with 0–1 μM IQF K63-linked diubiquitin substrate was used. Michaelis–Menten analyses and Lineweaver–Burk plots were calculated using GraphPad Prism (version 9.0).
(§2) To assess enzymatic activity, BRISC complexes were diluted to concentrations between 1 nM and 50 nM. […] Then, 20-μl enzyme reactions were carried out in 384-well black flat-bottom low-flange plates (Corning, 35373). DUB activity was measured using IQF K63-linked diubiquitin (LifeSensors, DU6303) at 50 nM. Cleaved diubiquitin was monitored by measuring fluorescence intensity (excitation, 544 nm; emission, 575 nm; dichroic mirror, 560 nm). Fluorescence intensity was measured every minute for 30 min at 30 °C. Fluorescence intensity units were plotted against time to generate a linear reaction progress curve, where the initial velocity (V0) corresponds to the gradient of the curve (typically achieved within 15 min). IC50 values were calculated using the GraphPad Prism (version 9.0) built-in dose–response equation for inhibitor concentration versus response (variable slope).

ARISC = target: T1, ARISC (Homo sapiens, UniProt P46736+Q6UWZ7+Q9NXR7); assay: ARISC IQF DUB activity assay; type: biochemical; details: for Normalised V0: Fig. 1e, ARISC
T1 construct: full-length BRISC (FL), ARISC (FL); made in house; host or cells: Spodoptera frugiperda (Sf9) insect cells, MultiBac
Method: as §1, §2

[2] = system: IFN-stimulated response elements (ISRE) in THP-1 cells; assay: THP-1 ISRE luciferase reporter, IFNα2 stimulation; type: cell-based, human; details: IFN + compound; replicate values
Method: (§3) THP-1 in vitro experiments
(§4) THP-1-DualTM cells (InvivoGen), derived from a human monocytic cell line, isolated from a patient with acute monocytic leukaemia, were cultured as per manufacturer’s guidance. Cells were seeded at 1x10^6 cells/mL in RPMI1640 media containing 10% fetal bovine serum (FBS), 1% penicillin-streptomycin (PS) (Gibco Laboratories) with DMSO (0.1%) (control) or in media containing JMS-175- […]
(§5) ng/mL) (Merck Life Science), ODN 2216 (1 µM) (Miltenyi Biotec), or Poly:IC (1 µg/mL) (InvivoGen).
(§6) Tofacitinib (Cambridge Biosciences) at 0.4 µM was used for comparison against a known JAK inhibitor.
(§7) Cells were centrifuged at 300 g for 5 minutes. Supernatant was removed and subjected to simultaneous study of the NF -κB pathway, by monitoring the activity of secreted alkaline phosphatase reporter (SEAP), and the IRF pathway, by assessing the activity o f a secreted Lucia luciferase using QUANTI - Blue ™ Solution and QUANTI -Luc™ 4 Lucia/Gaussia (InvivoGen), respectively, as per manufacturer’s instructions. Pelleted cells were used for FACS analysis using IFNα/β R1 APC-conjugated antibody or isotype control (Biotechne, FAB245A and IC002A), or unstained staining procedure with and without Zombie GreenTM (Biolegend). Samples were analysed using CytoFlex LX (Beckman) (50,000 live cells per condition). Median fluorescence intensity for APC channel gated on single cell live cells was analysed and compared as a percentage to control (no stimulation condition). […]

[3] = system: IFNAR1 surface levels in THP-1 cells; assay: THP-1 IFNAR1 surface levels (FACS); type: cell-based, human; details: for IFNAR1 surface levels (Fig. 5h): IFN + compound, No IFN = 100; for IFNAR1 surface levels: THP-1, hIFNα2 25 ng/ml, 4 μM, 16 h
Method: as §3, §4, §5, §6, §7

[4] = system: CXCL10 secretion in SSc PBMCs; assay: SSc PBMC CXCL10 ELISA, unstimulated; type: cell-based, human
Method: PBMCs in vitro experiments
Peripheral blood mononuclear cells (PBMCs) from healthy and SSc donors were separated using density gradient method (Leucosep™, Greiner Bio-One International) from EDTA anticoagulated peripheral blood; isolated cells were washed twice by PBS. PBMCs were then incubated in RPMI1640 […]
For healthy PBMCs, cells were stimulated with 20 ng/mL of IFN (+/- compounds or DMSO). For SSc PBMCs, cells were in basal conditions with no additional IFN stimulation. Cells were centrifuged at 300 g for 10 minutes. Supernatant was removed and subjected to R&D Systems DY266 Human CXCL10/IP-10 DuoSet ELISA (Biotechne) in duplicates, according to manufacturer’s guidance. Concentration of CXCL10 was determined according to a 4-parameter

[5] = system: ISG expression in MCF10A Cas9 cells expressing BRCC45 WT; assay: MCF10A BRCC45 WT ISG expression (RT–qPCR); type: cell-based, human; details: hIFNα2 75 ng/ml, 2.5 μM, 4 h

inhibition of ARISC (ARISC): did not inhibit | Normalised V0 (ARISC; JMS-175-2 0.02 μM): 0.8556 and 0.9425 and 1.0233 | Normalised V0 (ARISC; JMS-175-2 0.0399999 μM): 1.026 and 1.067 and 1.046 | Normalised V0 (ARISC; JMS-175-2 0.0599997 μM): 0.904 and 0.9422 and 0.9811 | Normalised V0 (ARISC; JMS-175-2 0.0799994 μM): 0.9323 and 0.9821 and 1.136 | Normalised V0 (ARISC; JMS-175-2 0.119998 μM): 0.8786 and 0.8823 and 0.8932 | Normalised V0 (ARISC; JMS-175-2 0.199996 μM): 0.9071 and 0.9585 and 0.9413 | Normalised V0 (ARISC; JMS-175-2 0.499975 μM): 0.8879 and 0.8767 and 0.9696 | Normalised V0 (ARISC; JMS-175-2 0.799936 μM): 0.7555 and 0.9585 and 0.9201 | Normalised V0 (ARISC; JMS-175-2 1.25984 μM): 0.8739 and 0.9751 and 0.9993 | Normalised V0 (ARISC; JMS-175-2 1.9996 μM): 0.8524 and 0.9491 and 1.046 | Normalised V0 (ARISC; JMS-175-2 3.159 μM): 0.8187 and 0.9789 and 0.9215 | Normalised V0 (ARISC; JMS-175-2 5.19739 μM): 0.8621 and 0.9152 and 0.9509 | Normalised V0 (ARISC; JMS-175-2 7.99364 μM): 0.8584 and 0.954 and 0.9288 | Normalised V0 (ARISC; JMS-175-2 12.7839 μM): 0.8845 and 0.9334 and 1.056 | Normalised V0 (ARISC; JMS-175-2 19.96 μM): 0.8867 and 0.9068 and 0.9342 | Normalised V0 (ARISC; JMS-175-2 31.4999 μM): 0.9307 and 0.9204 and 1.017 | Normalised V0 (ARISC; JMS-175-2 50.147 μM): 0.795 and 0.9622 and 0.9115 | Normalised V0 (ARISC; JMS-175-2 79.7601 μM): 0.6555 and 0.8717 and 0.8624
Structure (SMILES): O=C(NC1CCNCC1)c1nn(C(=O)c2c(Cl)cccc2Cl)cc1NC(=O)c1c(Cl)cccc1Cl [JMS-175-2]
inhibition of AMSH* [1]: did not inhibit | Normalised V0 ([1]; JMS-175-2 0.02 μM): 0.9388 and 1.234 and 1.0263 | Normalised V0 ([1]; JMS-175-2 0.0399999 μM): 1.025 and 1.209 and 1.056 | Normalised V0 ([1]; JMS-175-2 0.0599997 μM): 0.9933 and 1.1324 and 1.071 | Normalised V0 ([1]; JMS-175-2 0.0799994 μM): 0.9897 and 1.213 and 1.205 | Normalised V0 ([1]; JMS-175-2 0.119998 μM): 0.9691 and 1.214 and 1.014 | Normalised V0 ([1]; JMS-175-2 0.199996 μM): 1.015 and 1.194 and 1.011 | Normalised V0 ([1]; JMS-175-2 0.499975 μM): 0.9952 and 1.163 and 1.175 | Normalised V0 ([1]; JMS-175-2 0.799936 μM): 1.012 and 1.167 | Normalised V0 ([1]; JMS-175-2 1.25984 μM): 0.9861 and 1.185 and 1.256 | Normalised V0 ([1]; JMS-175-2 1.9996 μM): 0.9727 and 1.04 and 1.202 | Normalised V0 ([1]; JMS-175-2 3.159 μM): 1.015 and 1.159 and 1.047 | Normalised V0 ([1]; JMS-175-2 5.19739 μM): 1.314 and 1.221 and 1.023 | Normalised V0 ([1]; JMS-175-2 7.99364 μM): 1.059 and 1.183 and 1.085 | Normalised V0 ([1]; JMS-175-2 12.7839 μM): 0.9322 and 1.462 and 1.072 | Normalised V0 ([1]; JMS-175-2 19.96 μM): 0.9939 and 1.127 and 1.08 | Normalised V0 ([1]; JMS-175-2 31.4999 μM): 1.033 and 1.252 and 1.115 | Normalised V0 ([1]; JMS-175-2 50.147 μM): 0.9855 and 1.172 and 0.9587 | Normalised V0 ([1]; JMS-175-2 79.7601 μM): 0.8988 and 1.1324 and 1.1315 | Normalised V0 ([1]; JMS-175-2 125.99 μM): 0.8758 and 1.102 and 0.8516 | Normalised V0 ([1]; JMS-175-2 199.922 μM): 0.8346 and 1.096 and 1.031 | ISRE luciferase reporter signal (Fig. 5a) [2]: 2914 and 3263.67 and 4737.67 and 4742.67 | IFNAR1 surface levels (Fig. 5h) [3]: 48.4567 and 45.7565 and 33.0649 | IFNAR1 surface levels [3]: reduction in IFNAR1 surface levels | CXCL10, SSc donor PBMCs (Fig. 6d) ([4]; SSc donor ID 68): 66.733 | CXCL10, SSc donor PBMCs (Fig. 6d) ([4]; SSc donor ID 78): 0 | CXCL10, SSc donor PBMCs (Fig. 6d) ([4]; SSc donor ID 79): 0 | CXCL10, SSc donor PBMCs (Fig. 6d) ([4]; SSc donor ID 142): 7.1246 | CXCL10, SSc donor PBMCs (Fig. 6d) ([4]; SSc donor ID 205): 83.3318 | CXCL10, SSc donor PBMCs (Fig. 6d) ([4]; SSc donor ID 219): 3.3086 | CXCL10, SSc donor PBMCs (Fig. 6d) ([4]; SSc donor ID 244): 0 | CXCL10 secretion ([4]; basal, nonstimulated SSc PBMCs, 16 h): reduced CXCL10 secretion | ISG expression (ISG15, IFIT1, IFIT2, IFITM1, CXCL10) [5]: reduced gene expression for all five ISGs

Structure (SMILES): Cn1cc(NC(=O)c2c(Cl)cccc2Cl)c(C(=O)NC2CCN(C(=O)c3c(Cl)cccc3Cl)CC2)n1 [AP-5-145]
ISRE luciferase reporter signal (Fig. 5a) [2]: 5071.67 and 5115.33 and 6389 and 6090.67 | IFNAR1 surface levels (Fig. 5h) [3]: 65.8984 and 82.4668 and 66.4812 | IFNAR1 surface levels [3]: no significant reduction | CXCL10, SSc donor PBMCs (Fig. 6d) ([4]; SSc donor ID 68): 80 | CXCL10, SSc donor PBMCs (Fig. 6d) ([4]; SSc donor ID 78): 67.741 | CXCL10, SSc donor PBMCs (Fig. 6d) ([4]; SSc donor ID 79): 66.2158 | CXCL10, SSc donor PBMCs (Fig. 6d) ([4]; SSc donor ID 142): 86.6322 | CXCL10, SSc donor PBMCs (Fig. 6d) ([4]; SSc donor ID 205): 91.7468 | CXCL10, SSc donor PBMCs (Fig. 6d) ([4]; SSc donor ID 219): 90.6622 | CXCL10, SSc donor PBMCs (Fig. 6d) ([4]; SSc donor ID 244): 57.7808
